Assay results published in US20230265043A1, “CRYSTALLINE FORM OF PHENTERMINE HYDROCHLORIDE AND PROCESS FOR OBTAINING SAME” (priority 2020, published 2023).
Counter-ions that a name gives are not always drawn.

Legend:
Type in all cases: physicochemical
[1] = dynamic water vapor adsorption (DVS) at 60%, 80% and 95% relative humidity; conditions: for gain by mass at 80% relative humidity: 25° C., equilibrium reached; for hygroscopicity classification according to the British Pharmacopoeia, Ed. 2016: based on mass gain at 80% relative humidity
Excerpt: (§1) In all humidity conditions, the equilibrium criterion of mass variation of less than 0.001% was reached.
FIG. 13 presents dynamic water vapor sorption experiments under different humidity conditions for the anhydrous and monohydrate forms of phentermine hydrochloride. It is noted that in all analyzed humidity conditions, the system reached equilibrium, with the monohydrate form being much less hygroscopic than the anhydrous form. Phentermine hydrochloride in anhydrous form has a gain of about 7.5% by mass at 80% relative humidity, being classified as hygroscopic according to the British Pharmacopoeia (BF) (British Pharmacopoeia, Ed. 2016), which can cause dosing problems if the active is manipulated in high humidity conditions. In addition, the fact that the anhydrous form is hygroscopic allows its conversion to the monohydrate form in case of exposure to excessive amounts of water.

[2] = DSC heating and X-ray diffraction after heating (conversion of monohydrate to anhydrous form); conditions: 10° C./min, nitrogen flow, XRD after heating at 60° C.
Experimental: (B), when it converts to anhydrous form.
(§2) The Differential Scanning calorimetry (DSC) experiment (FIG. 8) is performed under an inert atmosphere using nitrogen flow. Therefore, for phentermine hydrochloride monohydrate, such flow favors water loss, and the experiment will have underestimated results.
Furthermore, the melting of the anhydrous form occurs around 200° C. in which the active also starts the decomposition process.

[3] = accelerated stability study in oven, 50° C. and 75% relative humidity, 30 days
Experimental: Phentermine hydrochloride monohydrate's stability was tested by keeping 25 g of sample in an oven under conditions of 50° C. and 75% relative humidity for 30 days, as recommended by the FDA guide (Food and Drug Administration, Guidance for Industry Q1A(R2) Stability Testing of New Drug Substances and Products, November 2003 rev.2).

[4] = dynamic water vapor desorption, relative humidity 95% to 0% at 25° C.; conditions: desorption 95% to 0% RH in steps of 5%, 25° C. (FIG. 9)
Experimental: as §1, §2

Row | SMILES | gain by mass at 80% relative humidity ([1]; 80% relative humidity) | hygroscopicity classification according to the British Pharmacopoeia, Ed. 2016 [1] | temperature of conversion to the anhydrous form on heating [2] | polymorphic conversion after accelerated stability test (infrared absorption and X-ray diffraction) [3] | relative humidity in which the form is stable [4] | times less hygroscopic than the anhydrous form ([1]; 80% relative humidity) [times]
1 | CC(C)(N)Cc1ccccc1.Cl [2-methyl-1-phenylpropan-2-amine, reference compound] | about 7.5 % by mass | hygroscopic |  |  |  | 
2 | CC(C)(N)Cc1ccccc1 [Phentermine hydrochloride monohydrate, phentermine hydrochloride monohydrate] | about 0.75 % by mass | slightly hygroscopic | above 50 °C | no polymorphic conversion | higher than 50% | 10
